According to the NIST ThermoML archive (doi:10.1021/acs.jced.5b01058):

Details: Liquid, Ebulliometric method (Recirculating still)

CCC(C)=O [butanone]
Details | vapor or sublimation pressure [kPa]
350.25 K | 94

CCCC(=O)OCC [ethyl butanoate]
Details | vapor or sublimation pressure [kPa]
361.56 K | 35.41
365.24 K | 40.41
371.33 K | 50
373.83 K | 54.4
376.28 K | 58.98
377.21 K | 60
377.23 K | 60
379.65 K | 65.75
384.82 K | 77.2
387.65 K | 84.14
390.23 K | 90.84
393.63 K | 100.4
393.78 K | 101.3

CCCCCCC [heptane]
Details | vapor or sublimation pressure [kPa]
368.85 K | 94

CCCOC(=O)CC [propyl propanoate]
Details | vapor or sublimation pressure [kPa]
361.75 K | 33.58
367.3 K | 40.92
371.88 K | 47.9
373.82 K | 51.21
378.75 K | 60
379.07 K | 60.83
383.56 K | 70.32
386.81 K | 77.9
390.13 K | 86.38
392.74 K | 93.37
395.51 K | 101.3

CCCCC(=O)OC [methyl pentanoate]
Details | vapor or sublimation pressure [kPa]
361.82 K | 29.41
366.7 K | 35.06
370.86 K | 40.47
374.53 K | 45.81
378.84 K | 52.83
382.55 K | 59.35
383.29 K | 60
387.18 K | 69.02
391.14 K | 77.71
395.42 K | 88.17
398.03 K | 95.08
400.07 K | 100.4
400.48 K | 101.3

CCCCCOC=O [pentyl methanoate]
Details | vapor or sublimation pressure [kPa]
370.04 K | 33.67
374.41 K | 39.15
377.87 K | 44.06
381.35 K | 49.42
385.08 K | 55.79
387.4 K | 60
387.46 K | 60
387.67 K | 60.5
391.65 K | 68.46
394.01 K | 73.5
396.89 K | 80.16
399.55 K | 86.56
402.19 K | 93.45
405.12 K | 101.3

CCCCOC(C)=O [butyl ethanoate]
Details | vapor or sublimation pressure [kPa]
361.85 K | 29.92
364.47 K | 32.95
370.9 K | 41.42
373.32 K | 45.02
380.1 K | 56.43
381.99 K | 60
382.01 K | 60
382.08 K | 60.15
388.06 K | 72.71
391.2 K | 80.09
394.58 K | 88.69
398.35 K | 99.03
399.09 K | 101.3

CCCCCCCC [octane]
Details | vapor or sublimation pressure [kPa]
380.76 K | 60
380.78 K | 60
380.82 K | 60
380.84 K | 60
380.85 K | 60
380.87 K | 60
380.94 K | 60
